20 compounds from EP0517918B1, “MONOCLONAL ANTIBODY AGAINST CARDIAC GLYCOSIDE AND UTILIZATION THEREOF” (SUNTORY LIMITED, priority 1990, dated 1992) can be followed below.

For this assay, the system named is Na^+,K^+-ATPase. The assay is described as follows: Na^+,K^+-ATPase inhibition rate (potassium ion concentration antagonist type), molybdate colorimetry. It is filed as biochemical. Conditions: 1 µM. How it is done: It is known that ouabain inhibits the enzyme activity of Na^+,K^+-ATPase. As such the Na^+,K^+-ATPase inhibitory activity of the various substances used as antigens in Example 4, Part B was examined to investigate the correlation between that inhibitory activity and reactivity with the monoclonal antibody of the present invention.
1.35 ml of TES buffer (80 mM TES, 200 mM NaCl, 9 mM MgSO4·7H2O and 10 mM EGTA adjusted to pH 7.4 with NaOH), 0.27 ml of 0.2% ODG (octyl-D-glucoside), 0.27 ml of 10^-5 M sample (10^-6 M during reaction), and 0.44 ml of distilled water were added to a plastic test tube which was then placed in an incubator at 25°C. 0.27 ml of 1 mM or 100 mM KCl and 50 µl of ATPase solution (stock solution, in which 5 units of […] (Sigma) were dissolved in 2 ml of 10 mM TES (pH 7.4) diluted 2.5 times with 10 mM TES (pH 7.4) as necessary) were added followed by incubation for 5 - 10 minutes at 25°C. Next, the reaction was started by addition of 50 µl of ATP solution (71 mg of ATP dissolved in 5 ml of 10 mM TES (pH 7.4) (Sigma)).
The reaction was allowed to proceed at 25°C for 30 minutes in the case of using 1 mM KCl (0.1 mM in the reaction solution), and for 10 minutes in the case of using 100 mM KCl (10 mM in the reaction solution). Next, 0.03 ml of 1% Triton™ X-100 solution (in distilled water) and 0.3 ml of 2.5% AmM solution (5 g of (NH4)6Mo7O24·4H2O dissolved in 6 N H2SO4 and brought to a volume of 200 ml) were mixed immediately prior to use (for a total of 0.33 ml) and then added to the reaction solution followed by incubation for 10 minutes at 25°C to stop the reaction and develop color. The absorbance of the reaction solution was then measured at 660 nm and the Na^+,K^+-ATPase inhibition rate (%) was calculated according to the following formula. Na^+ ,K^+ -ATPase Inhibition Rate (%) = [(Ao -Aw )/Ao ] × 100 [formula] Ao: Na^+,K^+-ATPase activity when sample not added Aw: Na^+,K^+-ATPase activity when sample added

The mark [1] stands for this setting: 0.1 mM K^+ in the reaction solution, sample 10^-6 M during reaction, 30 minutes at 25°C.
[2] abbreviates: 10 mM K^+ in the reaction solution, sample 10^-6 M during reaction, 10 minutes at 25°C.

For `C[C@H]1CCCC[C@H]1O` (relative stereo) [cis-2-Methylcyclohexanol], the “(Na^+,K^+-ATPase Inhibition) Rate (%) 0.1 mM K^+” value under setting [1] is -2%. In addition, the “(Na^+,K^+-ATPase Inhibition) Rate (%) 10 mM K^+” value under setting [2] is on record as 2%.
Consider `O=C1C=CCO1` [2(5H)-Furanone], for which the “(Na^+,K^+-ATPase Inhibition) Rate (%) 0.1 mM K^+” value under setting [1] worked out at 6%. Also, under setting [2], the “(Na^+,K^+-ATPase Inhibition) Rate (%) 10 mM K^+” value is recorded as -5%.
On to `CCCCC/C=C\C/C=C\C/C=C\C/C=C\CCCC(=O)O` [Arachidonic acid], for which, under setting [1], the “(Na^+,K^+-ATPase Inhibition) Rate (%) 0.1 mM K^+” value was -5%. The “(Na^+,K^+-ATPase Inhibition) Rate (%) 10 mM K^+” value under setting [2] was -2%.
For `C[C@H](CCC(=O)O)[C@H]1CC[C@H]2[C@@H]3[C@H](O)C[C@@H]4C[C@H](O)CC[C@]4(C)[C@H]3C[C@H](O)[C@]12C` [Cholic acid], in that order: 2% and -3%.
For the compound `C[C@]12C[C@H](O)[C@H]3[C@@H](CCC4=CC(=O)CC[C@@]43C)[C@@H]1CC[C@@H]2C(=O)CO` [Corticosterone], under setting [1], the “(Na^+,K^+-ATPase Inhibition) Rate (%) 0.1 mM K^+” value is recorded as -4%. Besides, the “(Na^+,K^+-ATPase Inhibition) Rate (%) 10 mM K^+” value under setting [2] was 1%.
For `OC1CCCCC1` [Cyclohexanol] the same measures were -3% and 0.4%.
`C[C@]12CC[C@H](O)C[C@H]1CC[C@@H]1[C@@H]2CC[C@]2(C)[C@@H](C3=CC(=O)OC3)CC[C@]12O` [Digitoxigenin]: the “(Na^+,K^+-ATPase Inhibition) Rate (%) 0.1 mM K^+” value was 44% and the “(Na^+,K^+-ATPase Inhibition) Rate (%) 10 mM K^+” value is given as 17%.
For the compound `C[C@H]1O[C@@H](O[C@H]2[C@@H](O)C[C@H](O[C@H]3[C@@H](O)C[C@H](O[C@H]4CC[C@@]5(C)[C@H](CC[C@@H]6[C@@H]5CC[C@]5(C)[C@@H](C7=CC(=O)OC7)CC[C@]65O)C4)O[C@@H]3C)O[C@@H]2C)C[C@H](O)[C@@H]1O` [Digitoxin], under setting [1], the “(Na^+,K^+-ATPase Inhibition) Rate (%) 0.1 mM K^+” value is on record as 41%. Moreover, the “(Na^+,K^+-ATPase Inhibition) Rate (%) 10 mM K^+” value under setting [2] is 11%.
As to `C[C@H]1O[C@@H](O[C@H]2[C@@H](O)C[C@H](O[C@H]3[C@@H](O)C[C@H](O[C@H]4CC[C@@]5(C)[C@H](CC[C@@H]6[C@@H]5C[C@@H](O)[C@]5(C)[C@@H](C7=CC(=O)OC7)CC[C@]65O)C4)O[C@@H]3C)O[C@@H]2C)C[C@H](O)[C@@H]1O` [Digoxin], the “(Na^+,K^+-ATPase Inhibition) Rate (%) 0.1 mM K^+” value came out at 45% and the “(Na^+,K^+-ATPase Inhibition) Rate (%) 10 mM K^+” value worked out at 18%.
Take `C[C@]12CCC(=O)C=C1CC[C@@H]1[C@@H]2[C@@H](O)C[C@@]2(C)[C@H]1CC[C@]2(O)C(=O)CO` [Hydrocortisone]: the “(Na^+,K^+-ATPase Inhibition) Rate (%) 0.1 mM K^+” value under setting [1] is -3%. Besides, under setting [2], the “(Na^+,K^+-ATPase Inhibition) Rate (%) 10 mM K^+” value was -1%.
In the case of `C[C@@H]1OC(O)[C@H](O)[C@H](O)[C@H]1O` (stereo partly drawn) [L-Rhamnose], the “(Na^+,K^+-ATPase Inhibition) Rate (%) 0.1 mM K^+” value under setting [1] was -2%. The “(Na^+,K^+-ATPase Inhibition) Rate (%) 10 mM K^+” value under setting [2] is reported as -4%.
For `CCCCC/C=C\C/C=C\CCCCCCCC(=O)O` [Linoleic acid], in that order: -7% and -5%.
For `CCCCCCCCCCCCCCCCOC[C@@H](O)COP(=O)([O-])OCC[N+](C)(C)C` [LisoPAF, L-α-lysophosphatidylcholine-γ-O-hexadecyl] the same measures were -2% and 0.4%.
For `C[C@]12C[C@@H](O)[C@H]3[C@@H](CC[C@]4(O)C[C@@H](O)C[C@@H](O)[C@]34CO)[C@@]1(O)CC[C@@H]2C1=CC(=O)OC1` [Ouabagenin], in that order: 44% and 6%.
For the compound `C[C@@H]1O[C@@H](O[C@H]2C[C@@H](O)[C@]3(CO)[C@H]4[C@H](O)C[C@]5(C)[C@@H](C6=CC(=O)OC6)CC[C@]5(O)[C@@H]4CC[C@]3(O)C2)[C@H](O)[C@H](O)[C@H]1O` [Ouabain], the “(Na^+,K^+-ATPase Inhibition) Rate (%) 0.1 mM K^+” value under setting [1] was 41%. The “(Na^+,K^+-ATPase Inhibition) Rate (%) 10 mM K^+” value under setting [2] was found to be 18%.
For `CCCCCCCCCCCCCCCCOC[C@H](COP(=O)([O-])OCC[N+](C)(C)C)OC(C)=O` [PAF, L-d-phosphatidylcholine-β-aceyl-γ-O-hexadecyl], in that order: -3% and 1%.
`CC(=O)[C@H]1CC[C@H]2[C@@H]3CCC4=CC(=O)CC[C@]4(C)[C@H]3CC[C@]12C` [Progesterone]: the “(Na^+,K^+-ATPase Inhibition) Rate (%) 0.1 mM K^+” value under setting [1] is 3%. Under setting [2], the “(Na^+,K^+-ATPase Inhibition) Rate (%) 10 mM K^+” value was found to be 5%.
Consider `C[C@]12CC[C@H](O)C[C@@H]1CC[C@@H]1[C@@H]2CC[C@]2(C)[C@@H](C3=CC(=O)OC3)CC[C@]12O` [Uzarigenin], for which the “(Na^+,K^+-ATPase Inhibition) Rate (%) 0.1 mM K^+” value was found to be 42% and the “(Na^+,K^+-ATPase Inhibition) Rate (%) 10 mM K^+” value came out at 6%.
With `C1CC[C@H]2CCC[C@H]2C1` [cis-Hydrindane], the “(Na^+,K^+-ATPase Inhibition) Rate (%) 0.1 mM K^+” value under setting [1] was -1%. Moreover, the “(Na^+,K^+-ATPase Inhibition) Rate (%) 10 mM K^+” value under setting [2] was determined as 0.5%.
For `C[C@]12CCC(=O)C=C1CC[C@@H]1[C@@H]2[C@@H](O)C[C@]2(C=O)[C@@H](C(=O)CO)CC[C@@H]12` [α-Aldosterone] the same measures were 1% and -11%.
